The source of these data is patent US20150051242A1, “RAFAMYCIN ANALOGS AND METHODS FOR MAKING SAME” (HANGZHOU ZYLOX PHARMA CO., LTD, priority 2012, published 2015).

pIC50: −log10 of the molar value.

For one test, the system named is HCT-116 human colon cancer.
Test: not given
Particulars: 9 mg/kg/day p.o., after 22 days treatment, compared to vehicle control.
`CO[C@H]1C[C@@H]2CC[C@@H](C)[C@@](O)(O2)C(=O)C(=O)N2CCCC[C@H]2C(=O)O[C@H]([C@H](C)C[C@@H]2CC[C@@H](OCCO)[C@H](OC)C2)CC(=O)[C@H](C)/C=C(\C)[C@@H](O)[C@@H](OC)C(=O)[C@H](C)C[C@H](C)/C=C/C=C/C=C/1C` [Compound A15, reference compound] registered a tumor growth inhibition of 63%.

The target in another test is T1, mTOR (Homo sapiens, UniProt P42345+P62942).
T1 construct: purchased Invitrogen (mTOR); SinoBiological (FKBP12) PV4753 (mTOR); 10268-H08E (FKBP12)
T1 sequence (P42345 1360-2549 limits assumed): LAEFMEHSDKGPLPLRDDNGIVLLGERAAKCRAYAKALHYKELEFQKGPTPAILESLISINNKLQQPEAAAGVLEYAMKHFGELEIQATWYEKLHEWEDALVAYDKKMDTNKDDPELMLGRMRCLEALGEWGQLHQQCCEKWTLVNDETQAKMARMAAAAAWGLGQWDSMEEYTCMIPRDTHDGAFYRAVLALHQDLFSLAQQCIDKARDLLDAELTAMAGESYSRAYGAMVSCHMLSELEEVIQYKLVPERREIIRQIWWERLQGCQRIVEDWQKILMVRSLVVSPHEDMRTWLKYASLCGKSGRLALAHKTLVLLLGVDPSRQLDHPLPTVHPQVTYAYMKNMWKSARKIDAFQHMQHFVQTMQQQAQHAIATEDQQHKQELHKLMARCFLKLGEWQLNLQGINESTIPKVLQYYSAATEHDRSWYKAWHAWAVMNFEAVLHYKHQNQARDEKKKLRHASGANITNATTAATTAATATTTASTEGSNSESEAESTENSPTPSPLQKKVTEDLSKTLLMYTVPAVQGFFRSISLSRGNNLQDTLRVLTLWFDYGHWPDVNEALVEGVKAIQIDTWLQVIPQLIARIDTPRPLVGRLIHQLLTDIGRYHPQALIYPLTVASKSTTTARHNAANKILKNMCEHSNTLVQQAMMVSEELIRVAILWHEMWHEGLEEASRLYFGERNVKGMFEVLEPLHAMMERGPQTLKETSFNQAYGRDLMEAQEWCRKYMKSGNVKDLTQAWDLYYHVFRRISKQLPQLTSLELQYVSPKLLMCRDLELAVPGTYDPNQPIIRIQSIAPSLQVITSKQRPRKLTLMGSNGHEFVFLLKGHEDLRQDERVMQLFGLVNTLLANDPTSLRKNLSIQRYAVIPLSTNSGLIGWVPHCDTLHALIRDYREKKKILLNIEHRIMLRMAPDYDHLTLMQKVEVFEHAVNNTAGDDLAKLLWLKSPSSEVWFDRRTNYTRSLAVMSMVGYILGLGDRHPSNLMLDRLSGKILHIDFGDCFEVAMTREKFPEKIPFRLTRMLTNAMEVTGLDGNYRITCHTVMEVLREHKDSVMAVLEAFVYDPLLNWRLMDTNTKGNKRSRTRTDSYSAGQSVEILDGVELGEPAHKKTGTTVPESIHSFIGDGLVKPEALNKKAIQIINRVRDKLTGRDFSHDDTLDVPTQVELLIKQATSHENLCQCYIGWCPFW
T1 sequence (P62942 whole entry): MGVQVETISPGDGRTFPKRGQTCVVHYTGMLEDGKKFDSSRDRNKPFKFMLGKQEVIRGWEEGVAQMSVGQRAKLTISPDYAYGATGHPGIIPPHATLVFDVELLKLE
Nature of the test: mTOR TR-FRET kinase assay (phosphorylation of GFP-4E-BP1). It is filed as biochemical. Particulars: 10 μM ATP, 0.4 μM GFP-4E-BP1, read-out: IC50 mTOR inhibition. From the text: Now we use a Terbium labeled anti-phosphorylated 4E--BP1 antibody to detect phosphorylation of the GFP-labeled substrate by mTOR. This TR-FRET based assay can be used to screen inhibitors of mTOR in vitro.
Materials: Assay buffer components: 1M HEPES pH7.5, GIBCO, Cat#15630: 1M MgCl2, Sigma, Cat# M1028: 0.5M EDTA, GIBCO, Cat# 15575: DTT, Sigma Cat# 43819: EGTA, Sigma Cat# E3889; Triton X100, Sigma, Cat# T8787: USA CALBIOCHEM Cat# 126575.
Enzyme, substrate and detection reagents: mTOR: Invitrogen, Cat# PV4753: GFP-4E-BPI: Invitrogen, Cat# PV4759: FKBP12: SinoBiological, Cat# 10268-H08E: ATP: Sigma Cat# A26209: Tb-anti-p4E-BP1: Invitrogen, Cat# PV4755: TR-FRET Dilution buffer Invitrogen, Cat# PV3574.
Plate: Compounds preparation plate: 384-well, Corning cat# 3657: Assay plate: black low volume 384 well microtiter plate (Greiner Bio-One, Cat# 784076).
Procedure: Compounds dosage gradient solution preparation:
Compounds were 3-fold serial diluted in 100% DMSO in a microtiter plate (Corning 3674) at 11 different concentrations in the range of 100 μM to 1.7 nM (100 μM, 33 μM, 11 μM, 3.7 μM, 1.2 μM, 411 nM, 137 nM, 46 nM, 15 nM, 5 nM, 1.7 nM). Then the diluted compounds in 100% DMSO was 10-fold diluted with ddH2O, so the compounds were in 10% DMSO.
0.5 μl diluted compounds in 10% DMSO was pipetted into a black low volume 384 well microtiter plate (Greiner Bio-One, Frickenhausen, Germany, cat# 784076): 2 μl of a solution of mTOR in aqueous assay buffer |50 mM HEPES/NaOH pH 7.5. mM MgCl12, 1.0 mM dithiothreitol, 1 mM EGTA, 0.01% (v/v) Triton-X100 (Sigma), 0.01% (w/v| bovine serum albumine (BSA)| (mTOR, 0.3125 ng/μl=>final cone, in the 5 μl assay volume is 0.125 ng/μl) were added to the assay plate and the compound-enzyme mixture was incubated for 15 min at 22° C. to allow pre-binding of the test compounds to the enzyme before the start of the kinase reaction:
The kinase reaction was started by the addition of 2.5 μl of a solution of ATP (ATP, […]=>final conc., in the 5 μl assay volume is 10 μM) and substrate (0.8 μM=>final conc. in the 5 μl assay volume is 0.4 μM) in assay buffer and the resulting mixture was incubated for 18 min at 22° C.
The reaction was stopped by the addition of 5 ul of 30 mM EDTA (EDTA, 30 mM=> final cone, in the 10 ∥l assay volume is 15 mM) and 4 nM Tb-chelate labeled anti-4E-BP1 |pT46| phosphospecific antibody |Invitrogen Cat# PV4755| (Tb-labeled antibody, 4 nM=>final conc. in the 10 μl assay volume is 2 nM) in TR-FRET dilution buffer, the resulting mixture was incubated 1 hour at 22° C. to allow the formation of complex of the phosphorylated substrate and the Tb-chelate labeled antibody.
The amount of phosphorylated substrate was evaluated by measurement of the resonance energy transfer from the Tb-chelate to the GFP. Therefore, the fluorescence emission at 495 nmn and 520 nm after excitation at 340 nm was measured on envision 2104 multilabel reader (Perkin-Elmer). The ratio of the emission at 520 nm and at 495 nm was taken as the measure for the amount of phosphorylated substrate. The data were normalised (enzyme reaction without inhibitor=0% inhibition, all other assay components but no enzyme=100% inhibition) and IC50 values were calculated by a 4 parameter fit (equation (1)) using IDBS XLfit software (ID Business Solutions Ltd., UK)
Y=Bottom+(TOP−Bottom)/(1+10̂((LogIC50−X)*hillslope)) equation (1)
In this equation, Y was the normalized % inhibition value. X was the log value of the test compound concentration. IC50 was the concentration of compound where half of maximal inhibition was achieved.
Regarding `CO[C@H]1C[C@@H]2CC[C@@H](C)[C@@](O)(O2)C(=O)C(=O)N2CCCC[C@H]2C(=O)O[C@H]([C@H](C)C[C@@H]2CC[C@@H](OCc3cn(C45CC6CC(CC(C6)C4)C5)nn3)[C@H](OC)C2)CC(=O)[C@H](C)/C=C(\C)[C@@H](O)[C@@H](OC)C(=O)[C@H](C)C[C@H](C)/C=C/C=C/C=C/1C` [Compound A3], the negative logarithm of the IC50 (pIC50) is less than 5.00.
For `CO[C@H]1C[C@@H]2CC[C@@H](C)[C@@](O)(O2)C(=O)C(=O)N2CCCC[C@H]2C(=O)O[C@H]([C@H](C)C[C@@H]2CC[C@@H](OCc3cn(-c4ccc(C(=O)O)cc4)nn3)[C@H](OC)C2)CC(=O)[C@H](C)/C=C(\C)[C@@H](O)[C@@H](OC)C(=O)[C@H](C)C[C@H](C)/C=C/C=C/C=C/1C` [Compound A4], the pIC50 is 5.18.
Still for that read-out and setting: in the case of `CO[C@H]1C[C@@H]2CC[C@@H](C)[C@@](O)(O2)C(=O)C(=O)N2CCCC[C@H]2C(=O)O[C@H]([C@H](C)C[C@@H]2CC[C@@H](OCc3c[nH]nn3)[C@H](OC)C2)CC(=O)[C@H](C)/C=C(\C)[C@@H](O)[C@@H](OC)C(=O)[C@H](C)C[C@H](C)/C=C/C=C/C=C/1C` [Compound A6] it was 5.04.
On the same count and under the same terms, for `COC1CC2CCC(C)C(O)(O2)C(=O)C(=O)N2CCCCC2C(=O)OC(C(C)CC2CCC(OCc3cn(CCO)nn3)C(OC)C2)CC(=O)C(C)C=C(C)C(O)C(OC)C(=O)C(C)CC(C)C=CC=CC=C1C` (centres unmarked) [Compound A9] the value was less than 5.00; for `CO[C@H]1C[C@@H]2CC[C@@H](C)[C@@](O)(O2)C(=O)C(=O)N2CCCC[C@H]2C(=O)O[C@H]([C@H](C)C[C@@H]2CC[C@@H](OCc3cn(CC(=O)O)nn3)[C@H](OC)C2)CC(=O)[C@H](C)/C=C(\C)[C@@H](O)[C@@H](OC)C(=O)[C@H](C)C[C@H](C)/C=C/C=C/C=C/1C` [Compound A12], less than 5.00.
Regarding `CO[C@H]1C[C@@H]2CC[C@@H](C)[C@@](O)(O2)C(=O)C(=O)N2CCCC[C@H]2C(=O)O[C@H]([C@H](C)C[C@@H]2CC[C@@H](OCc3cn(-c4ccc(N5CCN(C)CC5)cc4)nn3)[C@H](OC)C2)CC(=O)[C@H](C)/C=C(\C)[C@@H](O)[C@@H](OC)C(=O)[C@H](C)C[C@H](C)/C=C/C=C/C=C/1C` [Compound A13], the negative logarithm of the IC50 (pIC50) was less than 5.00.
Regarding `COC1CC2CCC(C)C(O)(O2)C(=O)C(=O)N2CCCCC2C(=O)OC(C(C)CC2CCC(OCc3cn(Cc4ccc(F)cc4)nn3)C(OC)C2)CC(=O)C(C)C=C(C)C(O)C(OC)C(=O)C(C)CC(C)C=CC=CC=C1C` (centres unmarked) [Compound A14], the pIC50 is less than 5.00.
Turning to `CO[C@H]1C[C@@H]2CC[C@@H](C)[C@@](O)(O2)C(=O)C(=O)N2CCCC[C@H]2C(=O)O[C@H]([C@H](C)C[C@@H]2CC[C@@H](OCCO)[C@H](OC)C2)CC(=O)[C@H](C)/C=C(\C)[C@@H](O)[C@@H](OC)C(=O)[C@H](C)C[C@H](C)/C=C/C=C/C=C/1C` [Compound A15, reference compound], the negative-log IC50 (pIC50) was 8.19.
Regarding `CO[C@H]1C[C@@H]2CC[C@@H](C)[C@@](O)(O2)C(=O)C(=O)N2CCCC[C@H]2C(=O)O[C@H]([C@H](C)C[C@@H]2CC[C@H](n3cc(CO)nn3)[C@H](OC)C2)CC(=O)[C@H](C)/C=C(\C)[C@@H](O)[C@@H](OC)C(=O)[C@H](C)C[C@H](C)/C=C/C=C/C=C/1C` [Compound B2], the negative logarithm of the IC50 (pIC50) was 7.73.
Turning to `CO[C@H]1C[C@@H]2CC[C@@H](C)[C@@](O)(O2)C(=O)C(=O)N2CCCC[C@H]2C(=O)O[C@H]([C@H](C)C[C@@H]2CC[C@H](n3cc(-c4cccnc4)nn3)[C@H](OC)C2)CC(=O)[C@H](C)/C=C(\C)[C@@H](O)[C@@H](OC)C(=O)[C@H](C)C[C@H](C)/C=C/C=C/C=C/1C` [Compound B9], the negative-log IC50 (pIC50) was 7.57.
As to `CO[C@H]1C[C@@H]2CC[C@@H](C)[C@@](O)(O2)C(=O)C(=O)N2CCCC[C@H]2C(=O)O[C@H]([C@H](C)C[C@@H]2CC[C@H](n3cc(-c4ccc(C(=O)O)cc4)nn3)[C@H](OC)C2)CC(=O)[C@H](C)/C=C(\C)[C@@H](O)[C@@H](OC)C(=O)[C@H](C)C[C@H](C)/C=C/C=C/C=C/1C` [Compound B11], the pIC50 was 6.35.
For `CO[C@H]1C[C@@H]2CC[C@@H](C)[C@@](O)(O2)C(=O)C(=O)N2CCCC[C@H]2C(=O)O[C@H]([C@H](C)C[C@@H]2CC[C@H](n3cc(COc4ccc(S(N)(=O)=O)cc4)nn3)[C@H](OC)C2)CC(=O)[C@H](C)/C=C(\C)[C@@H](O)[C@@H](OC)C(=O)[C@H](C)C[C@H](C)/C=C/C=C/C=C/1C` [Compound B12], the negative logarithm of the IC50 (pIC50) is 7.45.
As for `CO[C@H]1C[C@@H]2CC[C@@H](C)[C@@](O)(O2)C(=O)C(=O)N2CCCC[C@H]2C(=O)O[C@H]([C@H](C)C[C@@H]2CC[C@H](n3cc(-c4ccc(S(N)(=O)=O)cc4)nn3)[C@H](OC)C2)CC(=O)[C@H](C)/C=C(\C)[C@@H](O)[C@@H](OC)C(=O)[C@H](C)C[C@H](C)/C=C/C=C/C=C/1C` [Compound B13], the negative-log IC50 (pIC50) was 7.54.
